Results from patent US20250154288A1, “CYTOTOXICITY TARGETING CHIMERAS FOR C-C CHEMOKINE RECEPTOR 2-EXPRESSING CELLS” (GLAXOSMITHKLINE INTELLECTUAL PROPERTY DEVELOPMENT LIMITED, priority 2022, published 2025).
Counter-ions that a name gives are not always drawn.

Experiments:
[1] = target: T1, CHOK1 cells engineered to overexpress human CCR2 (Homo sapiens, UniProt P41597); assay: Antibody Dependent Cellular Cytotoxicity (ADCC) Reporter Assay; format: cell-based; settings: with anti-cotinine antibody (human IgG1 Fc, S239D/I332E); Jurkat FcγRIIIa NFAT-luciferase reporter cells; average if several runs; read-out: ADCC Reporter Assay pEC50 (converted)
T1 construct: expressed in transfected cells; host or cells: CHOK1
Procedure: An antibody dependent cellular cytoxocity reporter assay was conducted using the following four assay components: (i) ARM compound of Formula (I) targeting CCR2 (concentrations ranging from 1 pM to 10 μM) (ii) anti-cotinine antibody having a heavy chain sequence of SEQ ID NO: 11 and a light chain sequence of SEQ ID NO: 12 (rabbit variable region with human IgG1 Fc domain containing a DE mutation (S239D/I332E)) (concentrations ranging from 0.01 μg/mL to 200 μg/mL); (iii) target cells: CHOK1 cells engineered to overexpress either human CCR2 (typically 1000-20,000 cells per well) and (iv) reporter cells: Jurkat cells engineered to express FcγRIIIa with the reporter gene luciferase under the control of the NFAT promoter (typically 3000-75,000 cells per well). Reagents were combined in a final volume of 20 μL in a 384-well tissue culture treated plate. All four assay components were incubated together for about 12-18 hours. Thereafter, BioGlo Detection reagent (Promega) was added to the wells to lyse the cells and provide a substrate for the luciferase reporter protein. Luminescence signal was measured on a microplate reader and signal:background was calculated by dividing the signal of a test well by the signal obtained when no heterobivalent compound of Formula (I) was added. EC50 calculations were done using Graphpad Prism Software, specifically a nonlinear regression curve fit (Y=Bottom+(Top−Bottom)/(1+10 ^((Log EC50−X)*HillSlope))).
ARMs compounds of Formula (I) of the invention were tested for ADCC activity in the above assay in or more experimental runs and the results are shown in Table 3 below. Potency of the compounds of Formula (I) of the invention is reported as a pEC50 value. The pEC50 value is the negative log of the EC50 value, wherein the EC50 value is the half maximal effective concentration measured in molar (M). For compounds tested in more than one experimental run, the pEC50 value is reported as an average.

[2] = target: human alpha1 nicotinic acetylcholine (nACh) receptor (Homo sapiens, UniProt P02708+Q07001); assay: Nicotinic Acetylcholine Receptor Antagonism Assay (IONFlux automated patch clamp); format: cell-based; settings: for IC50: antagonism of nAChR stimulated with acetylcholine, average if several runs; for Emax at 100 µM: maximum percentage antagonism at Maximum Concentration of Compound Tested 100 μM
Sequence of human alpha1 nicotinic acetylcholine (nACh) receptor (P02708 21-457): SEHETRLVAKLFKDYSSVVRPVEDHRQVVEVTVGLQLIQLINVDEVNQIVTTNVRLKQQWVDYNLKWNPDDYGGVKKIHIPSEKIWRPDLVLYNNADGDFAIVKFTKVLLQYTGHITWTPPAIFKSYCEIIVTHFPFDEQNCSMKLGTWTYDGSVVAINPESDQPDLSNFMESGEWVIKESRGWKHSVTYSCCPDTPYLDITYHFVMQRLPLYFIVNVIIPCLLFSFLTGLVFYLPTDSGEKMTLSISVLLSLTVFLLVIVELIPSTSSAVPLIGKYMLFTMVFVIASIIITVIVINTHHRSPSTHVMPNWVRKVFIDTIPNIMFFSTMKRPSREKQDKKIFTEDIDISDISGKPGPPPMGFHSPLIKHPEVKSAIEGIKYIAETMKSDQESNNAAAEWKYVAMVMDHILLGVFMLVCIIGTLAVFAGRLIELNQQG
Sequence of human alpha1 nicotinic acetylcholine (nACh) receptor (P11230 24-501 partner): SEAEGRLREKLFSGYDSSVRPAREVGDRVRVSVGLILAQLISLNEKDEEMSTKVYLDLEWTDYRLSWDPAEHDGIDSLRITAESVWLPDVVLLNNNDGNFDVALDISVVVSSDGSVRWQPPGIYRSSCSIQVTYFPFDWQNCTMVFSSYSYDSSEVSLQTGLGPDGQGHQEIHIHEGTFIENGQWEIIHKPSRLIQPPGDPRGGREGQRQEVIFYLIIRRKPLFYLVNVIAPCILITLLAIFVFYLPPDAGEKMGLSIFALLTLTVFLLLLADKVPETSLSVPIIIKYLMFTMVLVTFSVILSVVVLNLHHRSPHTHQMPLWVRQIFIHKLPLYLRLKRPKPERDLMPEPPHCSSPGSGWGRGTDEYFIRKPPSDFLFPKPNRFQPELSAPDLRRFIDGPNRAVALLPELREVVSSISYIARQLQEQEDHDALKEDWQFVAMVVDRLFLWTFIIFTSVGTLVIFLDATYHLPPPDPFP
Sequence of human alpha1 nicotinic acetylcholine (nACh) receptor (Q07001 22-517): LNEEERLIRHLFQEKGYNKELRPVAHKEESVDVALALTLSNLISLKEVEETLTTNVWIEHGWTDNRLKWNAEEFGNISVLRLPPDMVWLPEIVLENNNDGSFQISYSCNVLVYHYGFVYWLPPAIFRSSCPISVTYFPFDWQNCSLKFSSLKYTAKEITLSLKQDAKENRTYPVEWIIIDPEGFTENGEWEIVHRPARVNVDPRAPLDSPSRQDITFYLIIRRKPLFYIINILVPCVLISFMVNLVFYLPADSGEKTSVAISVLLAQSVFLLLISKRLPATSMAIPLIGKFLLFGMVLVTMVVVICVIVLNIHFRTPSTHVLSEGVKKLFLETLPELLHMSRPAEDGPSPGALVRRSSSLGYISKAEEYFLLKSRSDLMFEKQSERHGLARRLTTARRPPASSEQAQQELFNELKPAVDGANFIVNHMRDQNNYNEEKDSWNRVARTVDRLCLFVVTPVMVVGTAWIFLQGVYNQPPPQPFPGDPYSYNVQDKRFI
Procedure: Cells expressing human alpha1 nicotinic acetylcholine (nACh) receptor (nAChR) were washed and dissociated using Trypsin containing buffer. Cells were then washed and seeded at a density of 3-5 million cells/mL and allowed to grow for 3 days. Then, 60-80 μL of cells were added to plates and incubated with dose response of an ARM compound of Formula (I) with a top concentration of either 10 μM or 100 μM. The receptor was then stimulated via addition of acetylcholine (ACh) and activation of the receptor was monitored via the IONFlux automated patch clamp system. IonFlux Data Analyzer software was utilized to perform leak subtraction and measure (min) peak current amplitude.
Data processing: (1) Current values recorded for vehicle only applications in individual traps/patterns were subtracted from corresponding current amplitude values for control, test article and control+test article. (2) Control response was calculated as % of the average response of the 3rd out of total 3 ACh (10 mM) applications alone. In rare situations, if the 3rd ACh response was obscured due to technical artifacts, the 2nd and/or 1st ACh (10 mM) application was considered as control. The peak current amplitude generated in the presence of each test article concentration was then used to calculate the % inhibition as compared to control response (10 mM ACh alone). These estimates were further corrected for vehicle response and run down corrected by normalizing with time matched control responses (10 mM ACh alone). The corrected percentages were then fit with a non-linear function in GraphPad Prism 6 (or later versions) to determine the IC50.
Exclusion criteria: (i) any n's with poor recording quality, (ii) control current amplitude <500 pA or (iii) significant outliers, as determined by the Grubbs' test.
ARMs compounds of Formula (I) of the invention were tested for antagonism of the nAChR in the above assay in […] experimental runs and the results are shown in Table 6 below. Antagonistic activity of the compounds of Formula (I) of the invention is reported as an IC50 value (half maximal inhibitory concentration) and the maximum percentage antagonism observed at the highest concentration of compound of Formula (I) tested, as indicated in Table 6. For compounds tested in more than one experimental run, the IC50 value is reported as an average.

CO[C@@H]1COCC[C@@H]1N[C@@H]1CC[C@@](C(=O)N2Cc3cc(C(F)(F)F)cnc3[C@@H](NC(=O)CCOCCOCCOCCOCCOCCOCCOCCOCCOCCOCCOCCOCCNC(=O)[C@H]3CC(=O)N(C)[C@@H]3c3cccnc3)C2)(C(C)C)C1 (stereo in doubt) [Example 24, (2S,3S)-N-(39-(((S)-6-((1S,3R)-1-Isopropyl-3-(((3S,4S)-3-methoxytetrahydro-2H-pyran-4-yl)amino)cyclopentane-1-carbonyl)-3-(trifluoromethyl)-5,6,7,8-tetrahydro-1,6-naphthyridin-8-yl)amino)-39-oxo-3,6,9,12,15,18,21,24,27,30,33,36-dodecaoxanonatriacontyl)-1-methyl-5-oxo-2-(pyridin-3-yl)pyrrolidine-3-carboxamide, 3Formic acid salt] showed an EC50 [1] of 1 nM.
Compound CO[C@@H]1COCC[C@@H]1N[C@@H]1CC[C@](CCCNC(=O)[C@H]2CC[C@@H](NC(=O)CCCO[C@H]3CC[C@H](OCCNC(=O)[C@H]4CC(=O)N(C)[C@@H]4c4cccnc4)CC3)CC2)(C(=O)N2CCc3ncc(C(F)(F)F)cc3C2)C1 [Example 6, (2S,3S)-N-(2-(((1R,4S)-4-(4-(((1R,4S)-4-((3-((1S,3R)-3-(((3S,4S)-3-Methoxytetrahydro-2H-pyran-4-yl)amino)-1-(3-(trifluoromethyl)-5,6,7,8-tetrahydro-1,6-naphthyridine-6-carbonyl)cyclopentyl)propyl)carbamoyl)cyclohexyl)amino)-4-oxobutoxy)cyclohexyl)oxy)ethyl)-1-methyl-5-oxo-2-(pyridin-3-yl)pyrrolidine-3-carboxamide, Formic acid salt] has an IC50 [2] of over 100000 nM, an Emax at 100 µM ([2]; read-out: Maximum Response (%)) of 31% and an EC50 [1] of 0.794 nM.
CO[C@@H]1COCC[C@@H]1N[C@@H]1CC[C@](CCCCNC(=O)[C@H]2CC[C@H](NC(=O)CCCO[C@H]3CC[C@@H](OCCNC(=O)[C@H]4CC(=O)N(C)[C@@H]4c4cccnc4)CC3)CC2)(C(=O)N2CCc3ncc(C(F)(F)F)cc3C2)C1 [Example 10, (2S,3S)-N-(2-(((1S,4R)-4-(4-(((1S,4R)-4-((4-((1S,3R)-3-(((3S,4S)-3-Methoxytetrahydro-2H-pyran-4-yl)amino)-1-(3-(trifluoromethyl)-5,6,7,8-tetrahydro-1,6-naphthyridine-6-carbonyl)cyclopentyl)butyl)carbamoyl)cyclohexyl)amino)-4-oxobutoxy)cyclohexyl)oxy)ethyl)-1-methyl-5-oxo-2-(pyridin-3-yl)pyrrolidine-3-carboxamide] showed an IC50 [2] of over 100000 nM, an Emax at 100 µM ([2]; read-out: Maximum Response (%)) of 26% and an EC50 [1] of 1.26 nM.
Work on CO[C@@H]1COCC[C@@H]1N(CCCNC(=O)[C@H]1CC[C@H](NC(=O)CCCO[C@H]2CC[C@H](OCCNC(=O)[C@H]3CC(=O)N(C)[C@@H]3c3cccnc3)CC2)CC1)[C@@H]1CC[C@@](C(=O)N2CCc3ncc(C(F)(F)F)cc3C2)(C(C)C)C1 [Example 13, (2S,3S)-N-(2-(((1R,4S)-4-(4-(((1S,4R)-4-((3-(((1R,3S)-3-isopropyl-3-(3-(trifluoromethyl)-5,6,7,8-tetrahydro-1,6-naphthyridine-6-carbonyl)cyclopentyl)((3S,4S)-3-methoxytetrahydro-2H-pyran-4-yl)amino)propyl)carbamoyl)cyclohexyl)amino)-4-oxobutoxy)cyclohexyl)oxy)ethyl)-1-methyl-5-oxo-2-(pyridin-3-yl)pyrrolidine-3-carboxamide] yielded an IC50 [2] of over 100000 nM, an Emax at 100 µM ([2]; read-out: Maximum Response (%)) of 37% and an EC50 [1] of 0.794 nM.
CO[C@@H]1COCC[C@@H]1N[C@@H]1CC[C@](CCCNC(=O)[C@H]2CC[C@@H](NC(=O)CCCC(=O)NCCCC(=O)NCCCNC(=O)[C@H]3CC(=O)N(C)[C@@H]3c3cccnc3)CC2)(C(=O)N2CCc3ncc(C(F)(F)F)cc3C2)C1 [Example 16, N-((1R,4s)-4-((3-((1S,3R)-3-(((3S,4S)-3-Methoxytetrahydro-2H-pyran-4-yl)amino)-1-(3-(trifluoromethyl)-5,6,7,8-tetrahydro-1,6-naphthyridine-6-carbonyl)cyclopentyl)propyl)carbamoyl)cyclohexyl)-N-(4-((3-((2S,3S)-1-methyl-5-oxo-2-(pyridin-3-yl)pyrolidine-3-carboxamido)propyl)amino)-4-oxobutyl)glutaramide] was tested, and the IC50 [2] was 71100 nM, the Emax at 100 µM ([2]; read-out: Maximum Response (%)) was 64% and the EC50 [1] was 0.631 nM.
Compound CO[C@@H]1COCC[C@@H]1N[C@@H]1CC[C@](CCCCNC(=O)[C@H]2CC[C@@H](NC(=O)CCOCCOCCOCCNC(=O)[C@H]3CC(=O)N(C)[C@@H]3c3cccnc3)CC2)(C(=O)N2CCc3ncc(C(F)(F)F)cc3C2)C1 [Example 18, (2S,3S)-N-(2-(2-(2-(3-(((1R,4s)-4-((4-((1S,3R)-3-(((3S,4S)-3-Methoxytetrahydro-2H-pyran-4-yl)amino)-1-(3-(trifluoromethyl)-5,6,7,8-tetrahydro-1,6-naphthyridine-6-carbonyl)cyclopentyl)butyl)carbamoyl)cyclohexyl)amino)-3-oxopropoxy)ethoxy)ethoxy)ethyl)-1-methyl-5-oxo-2-(pyridin-3-yl)pyrrolidine-3-carboxamide, Formic acid salt] has an EC50 [1] of 5.01 nM.
Compound CO[C@@H]1COCC[C@@H]1N[C@@H]1CC[C@](CCCCNC(=O)CCOCCOCCO[C@H]2CC[C@H](OCCNC(=O)[C@H]3CC(=O)N(C)[C@@H]3c3cccnc3)CC2)(C(=O)N2CCc3ncc(C(F)(F)F)cc3C2)C1 [Example 21, (2S,3S)-N-(2-(((1r,4S)-4-(2-(2-(3-((4-((1S,3R)-3-(((3S,4S)-3-Methoxytetrahydro-2H-pyran-4-yl)amino)-1-(3-(trifluoromethyl)-5,6,7,8-tetrahydro-1,6-naphthyridine-6-carbonyl)cyclopentyl)butyl)amino)-3-oxopropoxy)ethoxy)ethoxy)cyclohexyl)oxy)ethyl)-1-methyl-5-oxo-2-(pyridin-3-yl)pyrrolidine-3-carboxamide, Formic acid salt] has an IC50 [2] of over 10000 nM, an Emax at 10 µM ([2]; maximum percentage antagonism at Maximum Concentration of Compound Tested 10 μM, read-out: Maximum Response (%)) of 22% and an EC50 [1] of 6.31 nM.
For CO[C@@H]1COCC[C@@H]1N[C@@H]1CC[C@@](C(=O)N2Cc3cc(C(F)(F)F)cnc3[C@H](NC(=O)CCOCCOCCOCCOCCOCCOCCOCCOCCOCCOCCOCCOCCNC(=O)[C@H]3CC(=O)N(C)[C@@H]3c3cccnc3)C2)(C(C)C)C1 [Example 23, (2S,3S)—N-(39-(((R)-6-((1S,3R)-1-Isopropyl-3-(((3S,4S)-3-methoxytetrahydro-2H-pyran-4-yl)amino)cyclopentane-1-carbonyl)-3-(trifluoromethyl)-5,6,7,8-tetrahydro-1,6-naphthyridin-8-yl)amino)-39-oxo-3,6,9,12,15,18,21,24,27,30,33,36-dodecaoxanonatriacontyl)-1-methyl-5-oxo-2-(pyridin-3-yl)pyrrolidine-3-carboxamide, 3Formic acid salt], the EC50 [1] was 0.398 nM.
